Assay results taken from US4374845A, “1-(7-Carboxy-2-octynyl)imidazole derivatives, pharmaceutical compositions and use” (Kissei Pharmaceutical Co., priority 1980, dated 1983).
Structures can show the parent of a compound that is named as a salt.

Molecular target: T1, thromboxane synthetase from rabbit platelet microsomes (Oryctolagus cuniculus, UniProt G1TAZ9)
T1 construct: thromboxane synthetase from rabbit platelet microsomes; from tissue; host or cells: rabbit platelet microsomes
T1 sequence (G1TAZ9 1-530): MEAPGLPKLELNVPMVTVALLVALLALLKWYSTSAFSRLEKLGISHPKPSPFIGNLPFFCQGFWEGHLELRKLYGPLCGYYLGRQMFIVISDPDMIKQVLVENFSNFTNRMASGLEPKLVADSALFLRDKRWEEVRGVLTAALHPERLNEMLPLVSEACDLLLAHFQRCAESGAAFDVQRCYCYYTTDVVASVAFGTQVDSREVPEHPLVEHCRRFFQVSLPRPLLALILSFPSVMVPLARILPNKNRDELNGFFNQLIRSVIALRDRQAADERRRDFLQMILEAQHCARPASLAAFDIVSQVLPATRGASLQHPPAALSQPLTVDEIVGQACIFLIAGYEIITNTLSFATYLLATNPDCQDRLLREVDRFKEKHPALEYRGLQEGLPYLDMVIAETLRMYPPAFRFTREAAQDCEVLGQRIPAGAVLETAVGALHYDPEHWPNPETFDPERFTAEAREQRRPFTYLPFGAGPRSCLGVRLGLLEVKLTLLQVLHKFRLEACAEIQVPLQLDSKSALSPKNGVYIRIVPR
Test: inhibition of thromboxane synthetase from rabbit platelet microsomes
Format: biochemical
Settings: standard laboratory tests, read-out: molar concentration producing 50% inhibition of thromboxane synthetase
Text: For example, in standard laboratory tests, 1-(7-carboxy-7-methyl-2-octynyl)imidazole hydrochloride produce a 50% inhibition of thromboxane synthetase from rabbit platelet microsomes at the molar concentrations of 9×10^-9.

IC50: 9 nM
Structure (SMILES): CC(C)(CCCC#CCn1ccnc1)C(=O)O [Example 2, 1-(7-carboxy-7-methyl-2-octynyl)imidazole hydrochloride]
